For 1 compound, Ki results are on record in ChEMBL document CHEMBL2417511, “Probes for narcotic receptor mediated phenomena. 48. C7- and C8-substituted 5-phenylmorphan opioids from diastereoselective alkylation” (Eur J Med Chem, 2013).

Common to all, as to format: cell-based
The target of assay [1] is Kappa-type opioid receptor (Homo sapiens, UniProt P41145). The assay is described as follows: Displacement of [3H]U69,593 from human kappa opioid receptor expressed in CHO cells after 2 hrs by liquid scintillation counting.
Chain of Kappa-type opioid receptor (P41145 whole entry): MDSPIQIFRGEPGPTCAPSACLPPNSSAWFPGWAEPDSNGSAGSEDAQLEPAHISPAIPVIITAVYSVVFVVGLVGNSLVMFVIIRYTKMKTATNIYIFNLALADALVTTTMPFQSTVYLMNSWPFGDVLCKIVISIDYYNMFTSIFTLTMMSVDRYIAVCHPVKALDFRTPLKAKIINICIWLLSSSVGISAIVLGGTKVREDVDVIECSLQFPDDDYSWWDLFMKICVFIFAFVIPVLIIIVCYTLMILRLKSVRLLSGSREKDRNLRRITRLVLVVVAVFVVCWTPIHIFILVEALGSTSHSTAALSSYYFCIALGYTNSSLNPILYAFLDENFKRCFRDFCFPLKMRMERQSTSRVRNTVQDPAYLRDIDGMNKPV
Assay [2] concerns the target Delta-type opioid receptor (Homo sapiens, UniProt P41143). The assay is described as follows: Displacement of [3H]DADLE from human delta opioid receptor expressed in CHO cells after 2 hrs by liquid scintillation counting. A general note: Displacement assays read how much labelled ligand stays bound in the presence of the test substance.
The target of a further assay is Mu-type opioid receptor (Homo sapiens, UniProt P35372). Description: Displacement of [3H]DAMGO from human mu opioid receptor expressed in CHO cells after 2 hrs by liquid scintillation counting.
Chain of Mu-type opioid receptor (P35372 whole entry): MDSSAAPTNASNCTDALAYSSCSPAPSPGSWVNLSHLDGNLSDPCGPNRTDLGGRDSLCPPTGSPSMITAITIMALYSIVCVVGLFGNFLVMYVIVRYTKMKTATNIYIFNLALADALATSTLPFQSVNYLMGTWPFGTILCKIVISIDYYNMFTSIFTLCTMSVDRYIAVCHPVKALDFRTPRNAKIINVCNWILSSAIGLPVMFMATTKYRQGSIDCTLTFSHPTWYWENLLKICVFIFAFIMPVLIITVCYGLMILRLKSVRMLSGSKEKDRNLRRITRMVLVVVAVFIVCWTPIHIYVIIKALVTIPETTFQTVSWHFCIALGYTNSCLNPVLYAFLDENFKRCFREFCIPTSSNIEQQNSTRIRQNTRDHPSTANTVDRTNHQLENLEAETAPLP

Chain of Delta-type opioid receptor (P41143 whole entry): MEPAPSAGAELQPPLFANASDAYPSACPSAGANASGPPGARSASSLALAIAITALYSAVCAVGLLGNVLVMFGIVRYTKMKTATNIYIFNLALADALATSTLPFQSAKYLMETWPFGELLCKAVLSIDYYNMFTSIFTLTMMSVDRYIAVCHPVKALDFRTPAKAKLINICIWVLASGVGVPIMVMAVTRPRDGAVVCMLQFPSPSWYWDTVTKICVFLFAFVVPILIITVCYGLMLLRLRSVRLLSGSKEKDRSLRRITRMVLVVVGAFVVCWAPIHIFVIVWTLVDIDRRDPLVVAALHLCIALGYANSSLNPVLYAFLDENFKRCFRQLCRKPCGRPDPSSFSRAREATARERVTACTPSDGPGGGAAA

What is called Ki is the dissociation constant of the complex between target and ligand, obtained from inhibition or displacement. Take `CN1CC[C@]2(c3cccc(O)c3)C[C@H](O)C[C@@H]1C2`: the Ki in assay [1] came out at 1.23 µM; in assay [2], 1.96 µM; at Mu-type opioid receptor, 0.022 µM.
